The results in this text go back to US11046716B2, “Beta-lactamase inhibitors” (priority 2015, dated 2021).

One assay has as its target T1, SHV-5 (Klebsiella pneumoniae, UniProt P0A3M1).
T1 construct: made in house; host or cells: E. coli BL21(DE3)
As to the kind of experiment: β-lactamase enzyme inhibition assay, SHV-5 (cefotaxime substrate). It is filed as biochemical. The method, then:
(§1) For SHV-5, Kpc-2, p99AmpC and OXA-1 β-lactamases, E. coli BL21(DE3) bacterial cells carrying expression plasmids (expressed as native untagged proteins) for the individual β-lactamases were grown in 1 L of Superbroth (Teknova Inc. Hollister, Calif.) supplemented with 100 μg/ml kanamycin selection and 1×5052 (0.5% glycerol, 0.05% glucose and 0.2% α-lactose) at 35° C. for 18-20 hours. Cells were harvested by centrifugation (4,000×g, 4° C., 20 min), resuspended in 50 ml of 10 mM HEPES pH 7.5 ( 1/20 of the initial volume). The cells were lysed by sonication (5 pulses of 45 seconds) at 45 W on ice. The lysates were clarified by centrifugation at 10,000×g for 40 minutes at 4° C. Samples were diluted 5-fold in 50 mM sodium acetate pH 5.0, stored overnight at 4° C., after which they were centrifuged at 10,000×g for 30 minutes to clarify, and filtered through 0.45 μm filters. The samples were loaded onto a 5 ml Capto S sepharose cation exchange column (GE Healthcare) pre-equilibrated with 50 mM sodium acetate pH 5.0. The column was washed with 5 column volumes of 50 mM sodium acetate pH 5.0 to wash out unbound protein and a linear gradient of NaCl (0 to 500 mM) was used to elute the protein (over 16 CV) from the column. Fractions were assayed for β-lactamase activity using Centa (Calbiochem, Gibbstown, N.J.) or Nitrocefin (EMD Millipore chemicals, Darmstadt, Germany) as a reporter β-lactamase substrate for activity in the isolated fractions. Active fractions were pooled, concentrated and further purified by gel filtration chromatography on a Superdex 75 prep grade gel filtration column (GE Healthcare, Piscataway, N.J.) pre-equilibrated in 50 mM Hepes pH 7.5, 150 mM NaCl. Active fractions were pooled concentrated, quantitated by BCA protein determination (Thermo Scientific, Rockford, Ill.), dialyzed into PBS and frozen at −80° C. in 20% glycerol until use.
(§2) An equal volume of diluted enzyme stock was added, and the plates were incubated at 37° C. for 15 min. Nitrocefin was used as substrate for p99 AmpC, VIM-2 and OXA-1 and dispensed into each well at a final concentration of 100 μM. Absorbance at 486 nm was immediately monitored for 10 min using a Biotek Powerwave XS2 microplate spectrophotometer using the GEN5 software package (Biotek Instruments, Winooski Vt.). In an analogous fashion, imipenem was used as substrate for Kpc-2 and Cefotaxime was used for SHV-5, while changes in absorbance upon hydrolysis of the β-lactam ring were monitored at 300 nm and 260 nm respectively in UV-transparent 96-well microtiter assay plates. Maximum rates of hydrolysis were compared to those in control wells (without inhibitors), and percentages of enzyme inhibition were calculated for each concentration of inhibitor. The concentration of inhibitor needed to reduce the initial rate of hydrolysis of substrate by 50% (IC50) was calculated as the residual activity of β-lactamase at 486 nm using GraFit version 7 kinetics software package (Erithacus Software, Surrey, UK).
(§3) Using the methodology described above, examples of the current invention were evaluated for their ability to inhibit β-lactamase enzymes from all four Ambler classifications (A through D). […] NT=Not tested.

A further assay deals with T2, KPC-2 (Klebsiella pneumoniae, UniProt Q9F663).
T2 construct: made in house; host or cells: E. coli BL21(DE3)
As to the kind of experiment: β-lactamase enzyme inhibition assay, KPC-2 (imipenem substrate). It is filed as biochemical. Here is the method:
as §1, §2, §3

The next assay has as its target T3, VIM-2 (Escherichia coli, UniProt Q5U7L7).
T3 construct: made in house; host or cells: E. coli BL21(DE3)
As to the kind of experiment: β-lactamase enzyme inhibition assay, VIM-2 (nitrocefin substrate). The class given is biochemical. Here is the method:
For Vim-2 metallo β-lactamase, the procedure was identical with the following exceptions, first the protein was not pH adjusted to pH 5 with 50 mM sodium acetate, second, the chromatography step was changed to a 5 ml Q sepharose anion exchange column pre-equilibrated with 50 mM Hepes pH 7.5, and elution of the protein was achieved by a linear gradient of NaCl (0-600 mM). Finally, the VIM-2 purification required a second run (3rd step) on the Q sepharose anion exchange column to achieve acceptable purity (>90%).
as §2, §3

Another assay concerns the target T4, AmpC (Enterobacter cloacae, UniProt P05364).
T4 construct: made in house; host or cells: E. coli BL21(DE3)
As to the kind of experiment: β-lactamase enzyme inhibition assay, p99 AmpC (nitrocefin substrate). The class given is biochemical. The method, then:
as §1, §2, §3

The next assay addresses OXA-48 (UniProt Q6XEC0). Put plainly: β-lactamase enzyme inhibition assay, Class D oxacillinase. The class given is biochemical. The following applies: read-out: OXA-48.
Assay [1] deals with E. coli expressing the Class A Extended Spectrum Beta-Lactamase (ESBL) CTX-M-15. As to the kind of experiment: Broth microdilution MIC assay with ceftazidime, E. coli CTX-M-15. It is filed as cell-based. The note with it: Fixed CAZ (ceftazidime) 4 μg/mL; E. coli ESBL4 CTX-M-15. The text has this:
(§4) To determine the ability of test compounds to potentiate the inhibition of the growth of bacterial strains that produce beta-lactamase enzymes in the presence of a β-lactam antibiotic, classic cell based broth microdilution MIC assays were employed. Six bacteria strains producing beta-lactamase enzymes were used: E. coli expressing the Class A Extended Spectrum Beta-Lactamase (ESBL) CTX-M-15, E. cloacae expressing the Class C P99, K. pneumoniae expressing the Class A carbapenemase KPC-2, P. aeruginosa expressing the Class B carbapenemase VIM-2, K. pneumoniae expressing the class A carbapenemase KPC-2 and the class B carbapenemase VIM-4, and K. pneumoniae producing the Class D carbapenemase OXA-48. The assay was conducted in Cation Adjusted Mueller Hinton Broth (CAMHB, BD #212322, BD Diagnostic Systems, Sparks, Md.). Bacteria strains were grown for 3-5 hours in CAMBH broth. Test compounds (Examples 1-94) were added to a microtiter plate in 2-fold serial dilutions in CAMHB in a final concentration range of 16 μg/mL to 0.125 μg/ml. An overlay of CAMHB containing a Beta-lactam was added to the compounds at a final static concentration of 4 μg/ml. […] In addition to the titration of test compounds the MICs of a panel of control beta-lactams is also tested to ensure the strains are behaving consistently from test to test. Once the test compound and antibiotics are added the plates can be inoculated according to CLSI broth microdilution method. After inoculation the plates are incubated for 16-20 hours at 37° C. then the Minimal Inhibitory Concentration (MIC) of the test compound is determined visually.
(§5) Using the methodology described above, examples of the current invention were evaluated for their ability to inhibit the growth of β-lactamase-producing bacteria in the presence of a β-lactam antibiotic.
(In general: In broth dilution the organism is exposed to a series of concentrations in liquid medium.)

Assay [2] has as its system K. pneumoniae expressing the Class A carbapenemase KPC-2. Put plainly: Broth microdilution MIC assay with meropenem, K. pneumoniae KPC-2. The note with it: for MIC (μg/mL) of Exemplary Compounds in presence of fixed β-lactams: K. p. 156319 KPC-3: Fixed Mero (meropenem) 4 μg/mL. It is filed as cell-based.
Excerpt: as §4, §5

Assay [3] has as its system K. pneumoniae expressing the class A carbapenemase KPC-2 and the class B carbapenemase VIM-4. Put plainly: Broth microdilution MIC assay with meropenem, K. pneumoniae KPC-2 and VIM-4. It is filed as cell-based. The note with it: for MIC (μg/mL) of Exemplary Compounds in presence of fixed β-lactams: K. p. A-1797 KPC-2 VIM-4: Fixed Mero (meropenem) 4 μg/mL.
Excerpt: as §4, §5

The subject of assay [4] is K. pneumoniae producing the Class D carbapenemase OXA-48. As to the kind of experiment: Broth microdilution MIC assay with meropenem, K. pneumoniae OXA-48. The following applies: for MIC (μg/mL) of Exemplary Compounds in presence of fixed β-lactams: K. p. 11978 OXA-48: Fixed Mero (meropenem) 4 μg/mL. It is filed as cell-based.
Excerpt: as §4, §5

The subject of assay [5] is P. aeruginosa expressing the Class B carbapenemase VIM-2. As to the kind of experiment: Broth microdilution MIC assay with meropenem, P. aeruginosa VIM-2. The note with it: Pseudomonas aeruginosa, read-out: MIC alone. The class given is cell-based.
Excerpt: as §4, §5

[6] abbreviates: Klebsiella pneumoniae, read-out: MIC alone.

Where two headings read alike, the source gives them in different places. Bounds are passed on as bounds.

What is called MIC is the least concentration at which growth counts as inhibited.

T2 sequence (Q9F663 25-293, looked up): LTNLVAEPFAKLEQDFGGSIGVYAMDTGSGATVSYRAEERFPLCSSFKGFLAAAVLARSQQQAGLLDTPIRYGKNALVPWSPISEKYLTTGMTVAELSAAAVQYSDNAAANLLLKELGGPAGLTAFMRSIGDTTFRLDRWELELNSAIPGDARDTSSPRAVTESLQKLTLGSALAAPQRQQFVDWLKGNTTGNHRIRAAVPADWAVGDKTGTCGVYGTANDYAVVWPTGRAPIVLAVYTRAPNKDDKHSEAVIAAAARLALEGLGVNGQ
T1 sequence (P0A3M1 22-286): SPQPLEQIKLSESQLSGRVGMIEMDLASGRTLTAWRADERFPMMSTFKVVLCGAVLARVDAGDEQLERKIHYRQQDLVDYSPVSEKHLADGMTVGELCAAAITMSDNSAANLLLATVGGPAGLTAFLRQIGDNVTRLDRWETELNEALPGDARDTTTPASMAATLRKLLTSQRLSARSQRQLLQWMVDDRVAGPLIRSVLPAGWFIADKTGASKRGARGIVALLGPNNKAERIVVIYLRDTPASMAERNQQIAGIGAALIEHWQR
T4 sequence (P05364 21-381): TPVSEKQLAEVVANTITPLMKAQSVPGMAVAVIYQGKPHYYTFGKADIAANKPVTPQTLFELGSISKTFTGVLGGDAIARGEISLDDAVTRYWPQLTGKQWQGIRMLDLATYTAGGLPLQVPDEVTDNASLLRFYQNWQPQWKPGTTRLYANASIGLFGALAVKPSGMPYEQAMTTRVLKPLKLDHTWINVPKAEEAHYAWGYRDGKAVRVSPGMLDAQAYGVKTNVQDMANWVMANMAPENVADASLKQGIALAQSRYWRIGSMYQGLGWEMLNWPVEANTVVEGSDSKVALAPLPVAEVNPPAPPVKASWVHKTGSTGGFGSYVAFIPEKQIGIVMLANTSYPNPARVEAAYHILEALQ

Take `C[Si](C)(C)c1cn(CC(=O)N[C@H]2Cc3cccc(C(=O)O)c3OB2O)nn1` [Example 9, (R)-2-hydroxy-3-(2-(4-(trimethylsilyl)-1H-1,2,3-triazol-1-yl)acetamido)-3,4-dihydro-2H-benzo[e][1,2]oxaborinine-8-carboxylic acid]: the IC50 on SHV-5 was below 100 nM; at KPC-2 it was below 100 nM; at VIM-2, 1000 to 10000 nM; against AmpC, below 100 nM; at OXA-48, 100 to 1000 nM. Besides, the “MIC (μg/mL) of Exemplary Compounds in presence of fixed β-lactams: E. coli ESBL4 CTX-M-15” value in [1] is “B (B represents an MIC between 1 and 16 μg/mL inclusive)”. In addition, in assay [2], the “MIC (μg/mL) of Exemplary Compounds in presence of fixed β-lactams: K. p. 156319 KPC-3” value is reported as “A (A represents an MIC>16 μg/mL)”. The “MIC (μg/mL) of Exemplary Compounds in presence of fixed β-lactams: K. p. A-1797 KPC-2 VIM-4” value in assay [3] was “A (A represents an MIC>16 μg/mL)”. For the same molecule, the “MIC (μg/mL) of Exemplary Compounds in presence of fixed β-lactams: K. p. 11978 OXA-48” value in [4] is listed as “A (A represents an MIC>16 μg/mL)”.
Consider `C[C@@H](O)[C@H]1C(=O)N2C(C(=O)O)=C(S[C@@H]3CN[C@H](C(=O)N(C)C)C3)[C@H](C)[C@H]12` [Meropenem, meropenem, reference compound], for which the MIC is above 128 µg/mL in assay [2] (setting [6]), 16 µg/mL in assay [5], 64 µg/mL in [3] (setting [6]) and 128 µg/mL in assay [4] (setting [6]).
For the molecule `CCOC(=O)c1nnn(CC(=O)N[C@H]2Cc3cccc(C(=O)O)c3OB2O)c1C(=O)OCC` [Example 11, (R)-3-(2-(4,5-bis(ethoxycarbonyl)-1H-1,2,3-triazol-1-yl)acetamido)-2-hydroxy-3,4-dihydro-2H-benzo[e][1,2]oxaborinine-8-carboxylic acid], the IC50 against SHV-5 was below 100 nM; at KPC-2 (Class A, imipenem substrate, 300 nm, read-out: KPC-2) it was below 100 nM; on VIM-2 (Class B, nitrocefin substrate, 486 nm, read-out: VIM-2), 1000 to 10000 nM; against AmpC it was below 100 nM; on OXA-48 it was below 100 nM. Also, the “MIC (μg/mL) of Exemplary Compounds in presence of fixed β-lactams: E. coli ESBL4 CTX-M-15” value in [1] was “B (B represents an MIC between 1 and 16 μg/mL inclusive)”. Moreover, the “MIC (μg/mL) of Exemplary Compounds in presence of fixed β-lactams: K. p. 156319 KPC-3” value in assay [2] is “B (B represents an MIC between 1 and 16 μg/mL inclusive)”. Also, the “MIC (μg/mL) of Exemplary Compounds in presence of fixed β-lactams: K. p. A-1797 KPC-2 VIM-4” value in assay [3] was “B (B represents an MIC between 1 and 16 μg/mL inclusive)”. Further, in assay [4], the “MIC (μg/mL) of Exemplary Compounds in presence of fixed β-lactams: K. p. 11978 OXA-48” value is reported as “A (A represents an MIC>16 μg/mL)”.
